Source: ChEMBL document CHEMBL2029274, “Structure and property based design, synthesis and biological evaluation of γ-lactam based HDAC inhibitors: part II” (Bioorg Med Chem Lett, 2012)

Assays:
NCI-H23 = experiment: Antiproliferative activity against human NCI-H23 cells; format: functional
HCT-15 = experiment: Antiproliferative activity against human HCT15 cells; format: functional
PC-3 = experiment: Antiproliferative activity against human PC3 cells; format: functional
NUGC-3 = experiment: Antiproliferative activity against human NUGC3 cells; format: functional
ACHN = experiment: Antiproliferative activity against human ACHN cells; format: functional
[1] = Inhibition of HDAC by fluorescence assay
MDA-MB-231 = experiment: Antiproliferative activity against human MDA-MB-231 cells; format: functional
[2] = Metabolic stability in mouse liver microsomes assessed as compound remaining at 1 uM after 30 mins in the absence of NADPH; format: ADME, Microsome; details: read-out: Stability
[3] = Metabolic stability in mouse liver microsomes assessed as compound remaining at 1 uM after 30 mins in the presence of NADPH; format: ADME, Microsome; details: read-out: Stability
[4] = Chemical stability in buffer assessed as compound remaining at 1 uM after 30 mins; format: physicochemical; details: read-out: Stability

SMILES | GI50 (NCI-H23) | GI50 (HCT-15) | GI50 (PC-3) | GI50 (NUGC-3) | GI50 (ACHN) | IC50 [1] | GI50 (MDA-MB-231) | remaining at 0.5 h, 1 µM [2] | remaining at 0.5 h, 1 µM [3] | remaining at 0.5 h, 1 µM [4]
COc1cccc(CN2CC=C(CCC(=O)NO)C2=O)c1 | 1970 nM | 2820 nM | 3890 nM | 1750 nM | 4430 nM | 380 nM | 1770 nM | – | – | –
O=C(CCC1=CCN(CCc2ccccc2)C1=O)NO | – | – | – | – | – | 120 nM | 990 nM | 85.5% | 82.9% | 96.7%
COc1ccccc1CCN1CC=C(CCC(=O)NO)C1=O | 4490 nM | > 10000 nM | 3510 nM | 2020 nM | 2530 nM | 130 nM | 1500 nM | – | – | –
COc1ccccc1CN1CC=C(CCC(=O)NO)C1=O | 6130 nM | > 10000 nM | 3560 nM | > 10000 nM | > 10000 nM | > 10000 nM | 6030 nM | – | – | –
O=C(CCC1=CCN(Cc2cccc(C(F)(F)F)c2)C1=O)NO | 680 nM | 540 nM | 880 nM | 160 nM | 670 nM | 120 nM | 220 nM | – | – | –
COc1cccc(CCCN2CC=C(CCC(=O)NO)C2=O)c1 | 1170 nM | > 10000 nM | 2590 nM | 3930 nM | 2480 nM | 160 nM | 1880 nM | – | – | –
COc1ccc(CCCN2CC=C(CCC(=O)NO)C2=O)cc1 | 2510 nM | > 10000 nM | 7000 nM | 5480 nM | 4750 nM | 270 nM | 2560 nM | – | – | –
COc1ccc(CCN2CC=C(CCC(=O)NO)C2=O)cc1 | 4020 nM | > 10000 nM | 3170 nM | 1420 nM | 2380 nM | 190 nM | 1080 nM | 92% | 98.3% | 102%
O=C1CC2(CCCC2)CC(=O)N1CCCCN1CCN(c2ncccn2)CC1 [BUSPIRONE] | – | – | – | – | – | – | – | 0.1% | 106% | 108%
COc1ccccc1CCCN1CC=C(CCC(=O)NO)C1=O | 4490 nM | > 10000 nM | 3510 nM | 2020 nM | 2530 nM | 130 nM | 1500 nM | – | – | –
O=C(CCC1=CCN(Cc2ccc(C(F)(F)F)cc2)C1=O)NO | 6640 nM | 4540 nM | 4360 nM | 3230 nM | 4290 nM | 260 nM | 3070 nM | – | – | –
O=C(CCC1=CCN(CCc2ccc(C(F)(F)F)cc2)C1=O)NO | 1120 nM | 2200 nM | 2380 nM | 1080 nM | 2480 nM | 70 nM | 1170 nM | 73.9% | 75.9% | 102%
COc1cccc(CCN2CC=C(CCC(=O)NO)C2=O)c1 | 1170 nM | > 10000 nM | 2590 nM | 3930 nM | 2480 nM | 160 nM | 1880 nM | – | – | –
O=C(CCC1=CCN(CCc2cccc(C(F)(F)F)c2)C1=O)NO | 1110 nM | 6010 nM | 2770 nM | 920 nM | 1170 nM | 120 nM | 2170 nM | – | – | –
COc1ccc(CN2CC=C(CCC(=O)NO)C2=O)cc1 | 1640 nM | 1720 nM | 3120 nM | 1110 nM | 2480 nM | 450 nM | 1630 nM | – | – | –
O=C(CCC1=CCN(Cc2ccccc2)C1=O)NO | 4290 nM | 5370 nM | 4430 nM | – | 1080 nM | 120 nM | 990 nM | – | – | –
